Assay results taken from PMC7617969, “Carboxylic Acid Bioisosteres Boost Nurr1 Agonist Selectivity” (Journal of medicinal chemistry, 2025).

Experiments:
[1] = system: N27 rat dopaminergic neural cells; experiment: Nurr1-regulated gene expression (qPCR); type: cell-based; settings: N27 cells, 0.3, 1 or 3 μM, 21 h, referenced to GAPDH
[2] = system: THR; experiment: Gal4 hybrid reporter gene assay, selectivity panel; type: cell-based, human; settings: 1 µM; relative activation compared to reference agonists
Procedure: (§1) NR modulation was determined in Gal4 hybrid reporter gene assays in HEK293T cells (German Collection of Microorganisms and Cell Culture GmbH, DSMZ) using pFR-Luc (Stratagene, La Jolla, CA, USA; reporter), pRL-SV40 (Promega, Madison, WI, USA; internal control) and pFA-CMV-hNR-LBD[47],[48] plasmids coding for the hinge region and ligand binding domain of the canonical isoform of the respective NR. Cells were cultured in Dulbecco’s modified Eagle’s medium (DMEM), high glucose supplemented with 10% fetal calf serum (FCS), sodium pyruvate (1 mM), penicillin (100 U/mL), and streptomycin (100 μg/mL) at 37°C and 5% CO2 and seeded in 96-well plates (3×10^4 cells/well). After 24 h, medium was changed to Opti-MEM without supplements and cells were transiently transfected using Lipofectamine LTX reagent (Invitrogen, Carlsbad, CA, USA) according to the manufacturer’s protocol. Five hours after transfection, cells were incubated with the test compounds in Opti-MEM supplemented with penicillin (100 U/mL), streptomycin (100 μg/mL) and 0.1% DMSO for 16 h before luciferase activity was measured using the Dual-Glo Luciferase Assay System (Promega) according to the manufacturer’s protocol on a Tecan Spark luminometer (Tecan Deutschland GmbH, Crailsheim, Germany). Firefly luminescence was divided by Renilla luminescence and multiplied by 1000 resulting in relative light units (RLU) to normalize for transfection efficiency and cell growth. Fold activation was obtained by dividing the mean RLU of test compound by the mean RLU of the untreated control. All samples were tested in at least three biologically independent experiments in duplicates. For dose-response curve fitting and calculation of EC50 values, the equation “[Agonist] vs. response -- Variable slope (four parameters)” was used in GraphPad Prism (version 7.00, GraphPad Software, La Jolla, CA, USA).

[3] = system: PPAR; experiment: Gal4 hybrid reporter gene assay, selectivity panel; type: cell-based, human; settings: 1 µM; relative activation compared to reference agonists
Procedure: as §1

[4] = system: RXR; experiment: Gal4 hybrid reporter gene assay, selectivity panel; type: cell-based, human; settings: 1 µM; relative activation compared to reference agonists
Procedure: as §1

[5] = system: RAR; experiment: Gal4 hybrid reporter gene assay, selectivity panel; type: cell-based, human; settings: 1 µM; relative activation compared to reference agonists
Procedure: as §1

[6] = molecular target: T1, DHODH (Homo sapiens, UniProt Q02127); experiment: DHODH inhibition colorimetric assay on recombinant human protein; type: biochemical; settings: recombinant human DHODH, colorimetric; mean ± S.E.M., n ≥ 3; read-out: IC50 (DHODH)
T1 construct: using an N-terminally truncated recombinant DHODH enzyme as described previously[20]
T1 sequence (Q02127 31-395): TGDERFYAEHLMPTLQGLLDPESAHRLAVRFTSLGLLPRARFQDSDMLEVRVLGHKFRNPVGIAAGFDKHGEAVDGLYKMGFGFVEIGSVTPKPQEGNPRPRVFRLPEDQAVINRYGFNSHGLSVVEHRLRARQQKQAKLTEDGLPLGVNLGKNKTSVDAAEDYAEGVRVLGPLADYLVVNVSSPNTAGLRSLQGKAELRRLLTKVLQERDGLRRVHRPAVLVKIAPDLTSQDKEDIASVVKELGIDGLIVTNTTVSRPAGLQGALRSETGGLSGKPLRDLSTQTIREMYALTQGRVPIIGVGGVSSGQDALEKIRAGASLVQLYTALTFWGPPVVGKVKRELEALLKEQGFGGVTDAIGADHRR

[7] = molecular target: T2, VDR (Homo sapiens, UniProt P11473); experiment: Gal4 hybrid reporter gene assay, selectivity panel; type: cell-based; settings: 1 µM; relative activation compared to reference agonists
T2 construct: expressed in transfected cells; host or cells: HEK293T
T2 sequence (P11473 127-423 limits assumed): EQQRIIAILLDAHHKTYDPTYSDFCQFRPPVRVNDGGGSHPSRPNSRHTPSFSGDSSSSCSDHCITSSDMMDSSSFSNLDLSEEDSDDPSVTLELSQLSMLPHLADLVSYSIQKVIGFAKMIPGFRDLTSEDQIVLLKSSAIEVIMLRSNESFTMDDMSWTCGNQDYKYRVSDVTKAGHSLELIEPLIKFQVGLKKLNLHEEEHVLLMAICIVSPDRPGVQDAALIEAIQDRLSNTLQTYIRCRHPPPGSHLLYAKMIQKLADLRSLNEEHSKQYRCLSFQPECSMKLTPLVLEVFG
Procedure: as §1

[8] = molecular target: T3, CAR (Homo sapiens, UniProt Q14994); experiment: Gal4 hybrid reporter gene assay, selectivity panel; type: cell-based; settings: 1 µM; relative activation compared to reference agonists
T3 construct: expressed in transfected cells; host or cells: HEK293T
T3 sequence (Q14994 109-352 limits assumed): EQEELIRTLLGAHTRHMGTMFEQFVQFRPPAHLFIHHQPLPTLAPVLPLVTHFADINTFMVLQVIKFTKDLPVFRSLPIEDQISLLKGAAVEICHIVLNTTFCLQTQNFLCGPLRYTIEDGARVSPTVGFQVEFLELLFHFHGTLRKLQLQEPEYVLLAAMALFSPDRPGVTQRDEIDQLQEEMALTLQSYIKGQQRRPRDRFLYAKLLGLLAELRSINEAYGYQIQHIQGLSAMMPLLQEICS
Procedure: as §1

[9] = molecular target: T4, FXR (Homo sapiens, UniProt Q96RI1); experiment: Gal4 hybrid reporter gene assay, selectivity panel; type: cell-based; settings: 1 µM; relative activation compared to reference agonists
T4 construct: expressed in transfected cells; host or cells: HEK293T
T4 sequence (Q96RI1 262-486 limits assumed): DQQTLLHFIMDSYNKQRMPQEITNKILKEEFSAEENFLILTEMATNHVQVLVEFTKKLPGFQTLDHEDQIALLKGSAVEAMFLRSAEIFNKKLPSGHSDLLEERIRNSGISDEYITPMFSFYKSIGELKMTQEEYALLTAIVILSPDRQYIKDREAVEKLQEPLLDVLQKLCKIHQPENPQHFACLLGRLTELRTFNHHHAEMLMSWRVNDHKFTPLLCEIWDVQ
Procedure: as §1

[10] = molecular target: T5, PXR (Homo sapiens, UniProt O75469); experiment: Gal4 hybrid reporter gene assay, selectivity panel; type: cell-based; settings: 1 µM; relative activation compared to reference agonists
T5 construct: expressed in transfected cells; host or cells: HEK293T
T5 sequence (O75469 146-433): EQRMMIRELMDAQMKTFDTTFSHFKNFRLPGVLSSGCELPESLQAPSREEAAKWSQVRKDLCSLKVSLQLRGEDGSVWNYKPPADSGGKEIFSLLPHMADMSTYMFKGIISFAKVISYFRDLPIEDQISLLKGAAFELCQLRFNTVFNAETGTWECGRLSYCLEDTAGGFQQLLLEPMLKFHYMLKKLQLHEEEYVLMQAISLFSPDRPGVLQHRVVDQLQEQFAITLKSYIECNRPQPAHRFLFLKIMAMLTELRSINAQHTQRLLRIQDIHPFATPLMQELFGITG
Procedure: as §1

[11] = molecular target: T6, Nur77 (Homo sapiens, UniProt P22736); experiment: Gal4-Nur77 hybrid reporter gene assay; type: cell-based
T6 construct: expressed in transfected cells; host or cells: HEK293T
T6 sequence (P22736 360-595 limits assumed): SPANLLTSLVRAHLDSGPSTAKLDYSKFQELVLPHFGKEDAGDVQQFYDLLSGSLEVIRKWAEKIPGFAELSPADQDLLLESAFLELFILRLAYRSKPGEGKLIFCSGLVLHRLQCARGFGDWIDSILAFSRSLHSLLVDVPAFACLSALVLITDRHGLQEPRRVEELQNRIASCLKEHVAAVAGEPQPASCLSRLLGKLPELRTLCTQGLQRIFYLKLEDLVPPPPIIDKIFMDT
Procedure: NR modulation was determined in Gal4 hybrid reporter gene assays in HEK293T cells (German Collection of Microorganisms and Cell Culture GmbH, DSMZ) using pFR-Luc (Stratagene, La Jolla, CA, USA; reporter), pRL-SV40 (Promega, Madison, WI, USA; internal control) and pFA-CMV-hNR-LBD[47],[48] plasmids coding for the hinge region and ligand binding domain of the canonical isoform of the respective NR. Cells were cultured in Dulbecco’s modified Eagle’s medium (DMEM), high glucose supplemented with 10% fetal calf serum (FCS), sodium pyruvate (1 mM), penicillin (100 U/mL), and streptomycin (100 μg/mL) at 37°C and 5% CO2 and seeded in 96-well plates (3×10^4 cells/well). […] Five hours after transfection, cells were incubated with the test compounds in Opti-MEM supplemented with penicillin (100 U/mL), streptomycin (100 μg/mL) and 0.1% DMSO for 16 h before luciferase activity was measured using the Dual-Glo Luciferase Assay System (Promega) according to the manufacturer’s protocol on a Tecan Spark luminometer (Tecan Deutschland GmbH, Crailsheim, Germany). Firefly luminescence was divided by Renilla luminescence and multiplied by 1000 resulting in relative light units (RLU) to normalize for transfection efficiency and cell growth. […]

[12] = molecular target: T7, rDHODH (Rattus norvegicus, UniProt Q63707); experiment: rat DHODH inhibition assay; type: biochemical, rats
T7 construct: using an N-terminally truncated recombinant DHODH enzyme as described previously[20]
T7 sequence (Q63707 31-395): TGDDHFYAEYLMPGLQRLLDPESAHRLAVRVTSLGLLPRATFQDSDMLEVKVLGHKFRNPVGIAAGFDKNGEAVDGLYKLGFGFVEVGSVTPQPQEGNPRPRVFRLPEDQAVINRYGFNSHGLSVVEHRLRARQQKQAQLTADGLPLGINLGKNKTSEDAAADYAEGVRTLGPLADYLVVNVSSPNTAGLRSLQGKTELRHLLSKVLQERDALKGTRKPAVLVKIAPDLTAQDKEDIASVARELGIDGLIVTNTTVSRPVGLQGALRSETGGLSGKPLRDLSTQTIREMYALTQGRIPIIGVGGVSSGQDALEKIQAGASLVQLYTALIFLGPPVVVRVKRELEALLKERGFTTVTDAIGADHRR
Procedure: Inhibition of DHODH was measured in vitro using an N-terminally truncated recombinant DHODH enzyme as described previously. The final assay mixture contained 60 μM 2,6-dichloroindophenol, 50 μM decylubiquinone, 100 μM dihydroorotate, and the DHODH protein whose concentration was adjusted in a way that an average slope of approx. 0.2 AU/min served as the positive control (no inhibitor). Measurements were performed in 50 mM TrisHCl, 150 mM KCl, and 0.1% Triton X-100 at pH 8.0 and at 30°C with at least six different concentrations of a test compound. The reaction was started by adding dihydroorotate and measuring the absorption at 600 nm for 2 min. Each test compound concentration used for IC50 calculation was tested in at least three independent experiments.

Question: `COc1cccc(-c2ccc(NC(=O)C3=C(c4nn[nH]n4)CCC3)c(F)c2)c1` [compound 32, N-{3-Fluoro-3’-methoxy-[1,1'-biphenyl]-4-yl}-2-(2H-tetrazol-5-yl)cyclopent-1-ene-1-carboxamide] was tested. Which “BDNF mRNA expression” value [1] did it give?
Answer: Its value is “enhanced expression”.

Question: What about the “BIRC5 mRNA expression” value [1] of the same molecule?
Answer: Its value is “robust induction”.

Question: And the “CCND2 mRNA expression” value [1]?
Answer: The value was “enhanced expression”.

Question: What about the “CRMP4 mRNA expression” value [1] of the same molecule?
Answer: Its value is “enhanced expression”.

Question: What about the “FLRT2 mRNA expression” value [1] of the same molecule?
Answer: Its value is “enhanced expression”.

Question: And the “SOD2 mRNA expression” value [1]?
Answer: The value was “robust induction”.

Question: What about the “Sesn3 mRNA expression” value [1] of the same molecule?
Answer: The value was “robust induction”.

Question: What about the “TH mRNA expression” value [1] of the same molecule?
Answer: Its value is “enhanced the expression”.

Question: And the “XIAP mRNA expression” value [1]?
Answer: The value was “robust induction”.

Question: What about the “activity on THR” value [2] of the same molecule?
Answer: Its value is “no activity”.

Question: And the “activity on PPAR” value [3]?
Answer: Its value is “no activity”.

Question: And the “activity on RXR” value [4]?
Answer: Its value is “no activity”.

Question: What about the “activity on RAR” value [5] of the same molecule?
Answer: Its value is “no activity”.

Question: And the IC50 [6]?
Answer: Its IC50 is 10 ± 2 µM.

Question: And the “activity on VDR” value [7]?
Answer: The value was “no activity”.

Question: And the “activity on CAR” value [8]?
Answer: The value was “no activity”.

Question: And the “activity on FXR” value [9]?
Answer: Its value is “no activity”.

Question: What about the “activity on PXR” value [10] of the same molecule?
Answer: The value was “no activity”.

Question: What about the EC50 [11] of the same molecule?
Answer: The EC50 was 0.16 ± 0.03 µM.

Question: What about the “fold activation (Nur77)” value [11] of the same molecule?
Answer: The value was 1.9 fold.

Question: What about the inhibition at 100 µM [12] of the same molecule?
Answer: Its inhibition at 100 µM is 64 ± 2%.
